Six compounds from patent publication US11865108B2, “Nitrogen containing bicyclic compounds” (Wockhardt Limited, priority 2019, dated 2024) can be followed below.

Values after ≈ are worked out from the molar mass of the structure shown.

The subject of one experiment is K. pneumoniae B 77. The experiment in a line: MIC alone and in combination, K. pneumoniae B 77. The class given is cell-based. The conditions noted are these: Klebsiella pneumoniae, B77, 18 h, beta lactamase NDM, ESBL, alone or in combination as labelled. How it is done:
(§1) The biological activity of representative compounds according to the invention against various bacterial strains was investigated. In a typical study, overnight grown bacterial cultures were diluted appropriately and inoculated on the agar media containing doubling dilutions of the test compounds. Observations for growth or no growth was performed after 16-20 hours of incubation at 35±2° C. in the ambient air. The overall procedure was performed as per Clinical and Laboratory Standards Institute (CLSI) recommendations, (Clinical and Laboratory Standards Institute (CLSI), Performance Standards for Antimicrobial Susceptibility Testing, 20th Informational Supplement, M07-A9, Volume 32, No. 2, 2012). Molten Mueller Hinton Agar (MHA) (BD, USA) containing serial dilutions of each antibacterial agent were poured on to the plates and allowed to solidify. Appropriate suspensions from the freshly grown cultures were prepared in normal saline so that about 10^4 CFU/spot of the organism was delivered on to the drug containing agar plates using automated multipoint inoculator (Mast, UK). The plates were incubated in Biochemical oxygen demand (BOD) incubator at 37° C. for 18 hours and then examined for growth. […] The Table 2 depicts the antibacterial activity profile of compounds according to present invention against various multidrug resistant bacterial strains.
(§2) The antibacterial activity of compounds according to the invention was also investigated in combination with several antibacterial agents. For example, antibacterial activity of the representative compounds of Formula (I) (Example 1 and Example 2) in combination with Ceftazidime and Cefixime are summarized in Table 3.

The subject of another experiment is K. pneumoniae B 88. The experiment in a line: MIC alone and in combination, K. pneumoniae B 88. The conditions noted are these: Klebsiella pneumoniae, B88, 18 h, beta lactamase NDM, ESBL, alone or in combination as labelled. The class given is cell-based. How it is done: as §1, §2
A further experiment deals with K. pneumoniae NCTC 13443. The experiment in a line: MIC alone and in combination, K. pneumoniae NCTC 13443. Format: cell-based. The conditions noted are these: Klebsiella pneumoniae, NCTC13443, 18 h, beta lactamase NDM, ESBL, alone or in combination as labelled. Here is the method:
as §1, §2

The next experiment has as its system K. pneumoniae S 465. The experiment in a line: MIC alone and in combination, K. pneumoniae S 465. Format: cell-based. The conditions noted are these: Klebsiella pneumoniae, S465, 18 h, beta lactamase OXA-181, ESBL, alone or in combination as labelled. Here is the method: as §1, §2
In another experiment the test system is K. pneumoniae NCTC 13439. The experiment in a line: MIC alone and in combination, K. pneumoniae NCTC 13439. Format: cell-based. The note with it: Klebsiella pneumoniae, NCTC13439, 18 h, beta lactamase VIM-1, alone or in combination as labelled. How it is done: as §1, §2
Experiment [1] has as its system Multi Drug Resistant (MDR) Gram negative strains. The experiment in a line: Antibacterial activity alone and in combination, summary of Table 3. Format: cell-based, K. pneumoniae. The note with it: for antibacterial activity when used alone: strains of Table 3. How it is done:
as §1, §2

The test system of a further experiment is KP ATCC 700603. The experiment in a line: Agar dilution MIC, KP ATCC 700603. The conditions noted are these: Klebsiella pneumoniae, ATCC700603. Format: cell-based, K. pneumoniae. Here is the method: as §1
(In general: Agar dilution tests growth on a series of plates holding different concentrations.)

A further experiment deals with E. Coli 13351. The experiment in a line: Agar dilution MIC, E. Coli 13351. The note with it: Escherichia coli. The class given is cell-based. Here is the method: as §1
A further experiment deals with E. Coli 13352. The experiment in a line: Agar dilution MIC, E. Coli 13352. The class given is cell-based. The note with it: Escherichia coli. How it is done:
as §1

In another experiment the test system is E. Coli 13353. The experiment in a line: Agar dilution MIC, E. Coli 13353. Format: cell-based. The note with it: Escherichia coli. How it is done:
as §1

In a further experiment the test system is E. Coli M 36. The experiment in a line: Agar dilution MIC, E. Coli M 36. The conditions noted are these: Escherichia coli. The class given is cell-based. How it is done:
as §1

The subject of the next experiment is E. Coli 7 MP. The experiment in a line: Agar dilution MIC, E. Coli 7 MP. The class given is cell-based. The note with it: Escherichia coli. Here is the method:
as §1

The next experiment deals with E. Coli M 49. The experiment in a line: Agar dilution MIC, E. Coli M 49. The conditions noted are these: Escherichia coli. Format: cell-based. Here is the method:
as §1

The subject of a further experiment is E. Coli M 50. The experiment in a line: Agar dilution MIC, E. Coli M 50. The class given is cell-based. The conditions noted are these: Escherichia coli. Here is the method: as §1
The test system of a further experiment is E. Coli M 138. The experiment in a line: Agar dilution MIC, E. Coli M 138. The class given is cell-based. The note with it: Escherichia coli. Here is the method: as §1
The test system of a further experiment is E. Coli S 18. The experiment in a line: Agar dilution MIC, E. Coli S 18. The class given is cell-based. The conditions noted are these: Escherichia coli. Here is the method: as §1
A further experiment concerns K. pneumoniae H 521. The experiment in a line: Agar dilution MIC, K. pneumoniae H 521. Format: cell-based. The note with it: Klebsiella pneumoniae, H521. How it is done: as §1
For a further experiment, the system named is K. pneumoniae H 522. The experiment in a line: Agar dilution MIC, K. pneumoniae H 522. Format: cell-based. The conditions noted are these: Klebsiella pneumoniae, H522. How it is done: as §1
Another experiment has as its system K. pneumoniae H 523. The experiment in a line: Agar dilution MIC, K. pneumoniae H 523. Format: cell-based. The conditions noted are these: Klebsiella pneumoniae, H523. How it is done:
as §1

A further experiment has as its system K. pneumoniae H 525. The experiment in a line: Agar dilution MIC, K. pneumoniae H 525. The class given is cell-based. The note with it: Klebsiella pneumoniae, H525. How it is done: as §1

In general, MIC refers to the lowest concentration found to suppress growth. As for `CC(C)(O/N=C(\C(=O)N[C@@H]1C(=O)N2C(C(=O)[O-])=C(C[n+]3ccccc3)CS[C@H]12)c1csc(N)n1)C(=O)O` [Ceftazidime, reference compound], the MIC with K. pneumoniae B 77, in the experiment on K. pneumoniae B 88, in the experiment with K. pneumoniae NCTC 13443, in the experiment on K. pneumoniae S 465 and in the experiment on K. pneumoniae NCTC 13439 was > 32 µg/mL throughout. Further, the “antibacterial activity when used alone” value in [1] is given as “did not exhibit significant antibacterial activity”.
With `NC[C@H]1CN[C@H](CONC(=O)[C@@H]2CC[C@@H]3CN2C(=O)N3OS(=O)(=O)O)C1` [Example 9], the minimal inhibitory concentration (MIC) in the experiment with KP ATCC 700603 is > 32 µg/mL; in the experiment on E. Coli 13351 it was 4 µg/mL (≈ 10.2 µM); against E. Coli 13352 it was 4 µg/mL (≈ 10.2 µM); in the experiment on E. Coli 13353, 2 µg/mL (≈ 5.08 µM); against E. Coli M 36, 2 µg/mL (≈ 5.08 µM); against E. Coli 7 MP, 8 µg/mL (≈ 20.3 µM). Further, the MIC with E. Coli M 49 is 4 µg/mL (≈ 10.2 µM); against E. Coli M 50, 2 µg/mL (≈ 5.08 µM); in the experiment with E. Coli M 138 it was 4 µg/mL (≈ 10.2 µM); in the experiment with E. Coli S 18 it was 2 µg/mL (≈ 5.08 µM); in the experiment on K. pneumoniae H 521, 4 µg/mL (≈ 10.2 µM); in the experiment with K. pneumoniae H 522, 4 µg/mL (≈ 10.2 µM). For the same compound, the minimum inhibitory concentration (MIC) against K. pneumoniae H 523 and against K. pneumoniae H 525 was 2 µg/mL (≈ 5.08 µM) in each case.
Take `C[C@@H]1CN[C@H](CONC(=O)[C@@H]2CC[C@@H]3CN2C(=O)N3OS(=O)(=O)O)C1` [Example 2, (2S,5R)—N-{[(2S,4S)-4-Methyl-pyrrolidin-2-yl]methyloxy}-7-oxo-6-(sulfooxy)-1,6-diazabicyclo[3.2.1]octane-2-carboxamide]: the MIC in the experiment with KP ATCC 700603 was > 32 µg/mL; against E. Coli 13351, 1 µg/mL (≈ 2.64 µM); against E. Coli 13352, 1 µg/mL (≈ 2.64 µM); against E. Coli 13353 it was 0.5 µg/mL (≈ 1.32 µM); in the experiment on E. Coli M 36 it was 0.5 µg/mL (≈ 1.32 µM); against E. Coli 7 MP, 2 µg/mL (≈ 5.29 µM). Also, the MIC worked out at 4 µg/mL (≈ 10.6 µM) in the experiment on E. Coli M 49; 1 µg/mL (≈ 2.64 µM) against E. Coli M 50; 1 µg/mL (≈ 2.64 µM) against E. Coli M 138; 1 µg/mL (≈ 2.64 µM) against E. Coli S 18; 2 µg/mL (≈ 5.29 µM) against K. pneumoniae H 521; 1 µg/mL (≈ 2.64 µM) against K. pneumoniae H 522. Moreover, the MIC with K. pneumoniae H 523 is 1 µg/mL (≈ 2.64 µM); against K. pneumoniae H 525, 1 µg/mL (≈ 2.64 µM); in the experiment with K. pneumoniae B 77, > 32 µg/mL; in the experiment on K. pneumoniae B 88, > 32 µg/mL; with K. pneumoniae NCTC 13443 it was > 32 µg/mL; in the experiment on K. pneumoniae S 465, > 32 µg/mL. Also, the MIC in the experiment with K. pneumoniae NCTC 13439 is > 32 µg/mL. Moreover, in [1] (in combination with Ceftazidime and Cefixime, highly resistant bacterial strains), the “antibacterial effect in combination” value was “unusual and unexpected synergistic antibacterial effect”. Further, the “antibacterial activity when used alone” value in experiment [1] is given as “did not exhibit significant antibacterial activity”.
Take `O=C(NOC[C@@H]1C[C@@H](CF)CN1)[C@@H]1CC[C@@H]2CN1C(=O)N2OS(=O)(=O)O` [Example 10]: the MIC against KP ATCC 700603 was > 32 µg/mL; against E. Coli 13351 it was 1 µg/mL (≈ 2.52 µM); against E. Coli 13352, 2 µg/mL (≈ 5.05 µM); in the experiment on E. Coli 13353, 1 µg/mL (≈ 2.52 µM); in the experiment with E. Coli M 36, 1 µg/mL (≈ 2.52 µM); in the experiment on E. Coli 7 MP it was 2 µg/mL (≈ 5.05 µM). Moreover, the MIC against E. Coli M 49 was 4 µg/mL (≈ 10.1 µM); against E. Coli M 50 it was 1 µg/mL (≈ 2.52 µM); in the experiment on E. Coli M 138, 1 µg/mL (≈ 2.52 µM); with E. Coli S 18 it was 1 µg/mL (≈ 2.52 µM); with K. pneumoniae H 521 it was 2 µg/mL (≈ 5.05 µM); with K. pneumoniae H 522, 2 µg/mL (≈ 5.05 µM). For the same compound, the MIC with K. pneumoniae H 523 and in the experiment on K. pneumoniae H 525 was 2 µg/mL (≈ 5.05 µM) throughout.
For the compound `C=CC1=C(C(=O)O)N2C(=O)[C@@H](NC(=O)/C(=N\OCC(=O)O)c3csc(N)n3)[C@H]2SC1` [Cefixime, reference compound], the MIC in the experiment on K. pneumoniae B 77, in the experiment on K. pneumoniae B 88, in the experiment on K. pneumoniae NCTC 13443, with K. pneumoniae S 465 and with K. pneumoniae NCTC 13439 was > 32 µg/mL each time.
For `O=C(NOC[C@@H]1C[C@H](CO)CN1)[C@@H]1CC[C@@H]2CN1C(=O)N2OS(=O)(=O)O` [Example 6], the minimum inhibitory concentration (MIC) in the experiment on KP ATCC 700603 is > 32 µg/mL; against E. Coli 13351 it was 1 µg/mL (≈ 2.54 µM); against E. Coli 13352 it was 2 µg/mL (≈ 5.07 µM); with E. Coli 13353, 1 µg/mL (≈ 2.54 µM); in the experiment with E. Coli M 36 it was 1 µg/mL (≈ 2.54 µM); against E. Coli 7 MP, 2 µg/mL (≈ 5.07 µM). Besides, the MIC came out at 4 µg/mL (≈ 10.1 µM) in the experiment on E. Coli M 49; 1 µg/mL (≈ 2.54 µM) with E. Coli M 50; 1 µg/mL (≈ 2.54 µM) against E. Coli M 138; 1 µg/mL (≈ 2.54 µM) against E. Coli S 18; 2 µg/mL (≈ 5.07 µM) in the experiment on K. pneumoniae H 521; 2 µg/mL (≈ 5.07 µM) against K. pneumoniae H 522. Besides, the figures for the minimum inhibitory concentration (MIC) in the experiment with K. pneumoniae H 523 and against K. pneumoniae H 525 were 2 µg/mL (≈ 5.07 µM) and 1 µg/mL (≈ 2.54 µM), respectively.
